From patent US10005767B2, “Compositions and methods for inhibition of the JAK pathway” (Rigel Pharmaceuticals, Inc., priority 2009, dated 2018) come the findings set out here.

In the first assay the test system is human primary T-cells, IL-2 stimulated proliferation (JAK-1 and JAK-3 dependent; reported as JAK3 activity). As to the kind of experiment: Human primary T-cell proliferation stimulated by IL-2 (Example 3). The format is cell-based. To be noted: Homo sapiens, T-cell, tested under conditions described in Example 3 (IL-2 stimulated human primary T-cell proliferation); read-out: ability to inhibit JAK3 activity, IC50 range (Table V). In short, it runs like this: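 Peripheral-blood human T-cells pre-activated via TCR/CD28, IL-2-starved overnight, then cultured 72 h at 37 °C with compound in Yssel's medium containing IL-2 (80 U/mL in cell suspension). Proliferation read as viable-cell ATP by CellTiter-Glo luminescence; reduction versus control taken as JAK pathway inhibition.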
In general, IC50 refers to the concentration needed to halve the response being measured. For the compound `Cc1cnc(Nc2cccc(S(C)(=O)=O)c2)nc1Nc1cc(C)c2oc(=O)[nH]c2c1` [Compound I-244, 7-methyl-5-(5-methyl-2-(3-(methylsulfonyl)phenylamino)pyrimidin-4-ylamino)benzo[d]oxazol-2(3H)-one], the IC50 is under 500 nM.
For the compound `Cc1cnc(Nc2cc(F)c(F)cc2F)nc1Nc1ccc2oc(=O)[nH]c2c1` [Compound I-481, 5-[5-Methyl-2-(2,4,5-trifluoro-phenylamino)-pyrimidin-4-ylamino]-3H-benzooxazol-2-one], the IC50 is under 500 nM.
Still for that read-out and setting: the result for `CCN(CC)C1CCN(C2CCCCc3ccc(Nc4ncc(C)c(Nc5ccc6oc(=O)[nH]c6c5)n4)cc32)C1` (centres unmarked) [IV-13, 5-{2-[9-(3-Diethylamino-pyrrolidin-1-yl)-6,7,8,9-tetrahydro-5H-benzocyclohepten-2-ylamino]-5-methyl-pyrimidin-4-ylamino}-3H-benzooxazol-2-one] reads 500 to 5000 nM.
Same read-out and setting: in the case of `Cc1cnc(Nc2cnc(N3CC4CCC(C3)N4)c(C)c2)nc1Nc1ccc2oc(=O)[nH]c2c1` [II-61, 5-(2-(6-(3,8-diaza-bicyclo[3.2.1]octan-3-yl)-5-methylpyridin-3-ylamino)-5-methylpyrimidin-4-ylamino)benzo[d]oxazol-2(3H)-one] it was under 500 nM; in that of `Cc1ccc(F)c(Nc2ncc(C)c(Nc3ccc4oc(=O)[nH]c4c3)n2)c1` [Compound I-515, 5-(2-(2-fluoro-5-methylphenylamino)-5-methylpyrimidin-4-ylamino)benzo[d]oxazol-2(3H)-one], under 500 nM.
On the same count and under the same terms, in the case of `COc1cc(Nc2ncc(C)c(Nc3ccc4oc(=O)[nH]c4c3)n2)cc(C(C)NC(C)C)c1` (centres unmarked) [Compound I-231, 5-(2-(3-(1-(isopropylamino)ethyl)-5-methoxyphenylamino)-5-methylpyrimidin-4-ylamino)benzo[d]oxazol-2(3H)-one] it was under 500 nM; in that of `Cc1cc(F)cc(Nc2ncc(C)c(Nc3ccc4oc(=O)[nH]c4c3)n2)c1` [Compound I-199, 5-[2-(3-Fluoro-5-methyl-phenylamino)-5-methyl-pyrimidin-4-ylamino]-3H-benzooxazol-2-one], under 500 nM; in that of `Cc1cnc(Nc2ccc(C(C)NC3CC3)cc2)nc1Nc1ccc2oc(=O)[nH]c2c1` (centres unmarked) [Compound I-202, 5-(2-(4-(1-(cyclopropylamino)ethyl)phenylamino)-5-methylpyrimidin-4-ylamino)benzo[d]oxazol-2(3H)-one], under 500 nM.
`Cc1cnc(Nc2ccc(N3CCN(C(=O)OC(C)(C)C)CC3)nc2)nc1Nc1ccc2oc(=O)[nH]c2c1` [II-5, N4-(benzo[d]oxazol-2(3H)-on-5-yl)-N2-(6-(4-tert-butyloxycarbonylpiperazin-1-yl)pyridin-3-yl)-5-methylpyrimidine-2,4-diamine]: the IC50 is under 500 nM.
Regarding `Cc1cnc(Nc2cc(O)c3ccccc3c2)nc1Nc1ccc2oc(=O)[nH]c2c1` [IV-56, 5-[2-(4-Hydroxy-naphthalen-2-ylamino)-5-methyl-pyrimidin-4-ylamino]-3H-benzooxazol-2-one], the IC50 fell in the range of 5000 to 10000 nM.
Still for that read-out and setting: in the case of `COc1c(F)ccc(Nc2ncc(C)c(Nc3cc(C)c4oc(=O)[nH]c4c3)n2)c1F` [Compound I-507, 5-(2-(2,4-difluoro-3-methoxyphenylamino)-5-methylpyrimidin-4-ylamino)-7-methylbenzo[d]oxazol-2(3H)-one] it was under 500 nM; in that of `CN1CCN(c2ccc(Nc3ncc(F)c(Nc4ccc5oc(=O)[nH]c5c4)n3)cn2)CC1` [II-14, N4-(benzo[d]oxazol-2(3H)-on-5-yl)-N2-[2-(4-methylpiperazin-1-yl)pyridin-5-yl]-5-fluoropyrimidine-2,4-diamine], under 500 nM.

The assay is the same for the next values; noted with them: tested under conditions described in Example 3 (IL-2 stimulated human primary T-cell proliferation); read-out: ability to inhibit JAK3 activity, IC50 range (Table V).
For `Cc1cnc(Nc2ccc(N(C)[C@H]3CCCN(Cc4ccccc4)C3)nc2)nc1Nc1ccc2oc(=O)[nH]c2c1` [II-100, (S)-5-(2-(6-((1-benzylpiperidin-3-yl)(methyl)amino)pyridin-3-ylamino)-5-methylpyrimidin-4-ylamino)benzo[d]oxazol-2(3H)-one], the IC50 is under 500 nM.
Same read-out and setting: in the case of `Cc1cnc(Nc2ccc(N3CCC(F)(F)CC3)c(Cl)c2)nc1Nc1ccc2oc(=O)[nH]c2c1` [Compound I-277, N2-[3-chloro-4-(4,4-difluoropiperidinyl)]phenyl-5-methyl-N4-(2-oxo-2,3-dihydro-1,3-benzoxazol-5-yl)-2,4-pyrimidinediamine] it was under 500 nM.
On the same count and under the same terms, in the case of `Cc1cnc(Nc2cc(C(C)(C)C)cc(C(C)(C)C)c2)nc1Nc1ccc2oc(=O)[nH]c2c1` [Compound I-355, N2-(3,5-di-tert-butyl)phenyl-5-methyl-N4-(2-oxo-2,3-dihydro-1,3-benzoxazol-5-yl)-2,4-pyrimidinediamine] it was 500 to 5000 nM; in that of `Cc1cnc(Nc2ccc(C#N)c(OC(F)F)c2)nc1Nc1ccc2oc(=O)[nH]c2c1` [Compound I-434, N2-(4-cyano-3-difluoromethoxy)phenyl-5-methyl-N4-(2-oxo-2,3-dihydro-1,3-benzoxazol-5-yl)-2,4-pyrimidinediamine], under 500 nM; in that of `Cc1cnc(Nc2ccc(Cl)c(N3CC(C)N(C)C(C)C3)c2)nc1Nc1ccc2oc(=O)[nH]c2c1` (centres unmarked) [Compound I-284, N2-[4-chloro-3-(3,4,5-trimethylpiperazino)]phenyl-5-methyl-N4-(2-oxo-2,3-dihydro-1,3-benzoxazol-5-yl)-2,4-pyrimidinediamine], under 500 nM.
The same measure, in the same setting: the result for `Cn1c(=O)n(C)c2cc(Nc3nc(Nc4cccc(S(N)(=O)=O)c4)ncc3F)ccc21` [Compound I-39, N4-(1,3-dimethylbenzimidazolin-2-on-5-yl)-N2-((3-aminosulfonyl)phenyl)-5-fluoropyrimidine-2,4-diamine] reads under 500 nM; that for `Cc1cnc(Nc2cc(Cl)cc(OC(F)F)c2)nc1Nc1ccc2oc(=O)[nH]c2c1` [Compound I-495, N2-(3-chloro-5-difluoromethoxy)phenyl-5-methyl-N4-(2-oxo-2,3-dihydro-1,3-benzoxazol-5-yl)-2,4-pyrimidinediamine], under 500 nM.
Take `Cc1ccc(Nc2ncc(C)c(Nc3ccc4c(c3)oc(=O)n4C)n2)cc1NS(C)(=O)=O` [Compound I-83, N2-((3-methylsulfonylamino-4-methyl)phenyl)-N4-(3-methyl-2-oxo-2,3-dihydrobenzo[d]oxazol-6-yl)-5-methylpyrimidine-2,4-diamine]: the IC50 was under 500 nM.
Still for that read-out and setting: in the case of `Cc1cnc(Nc2cccc(-c3ccncc3)c2)nc1Nc1ccc2oc(=O)[nH]c2c1` [Compound I-289, 5-methyl-N4-(2-oxo-2,3-dihydro-1,3-benzoxazol-5-yl)-N2-[3-(pyridin-4-yl)]phenyl-2,4-pyrimidinediamine] it was under 500 nM; in that of `Cc1cnc(Nc2cc(OC(F)F)cc(C(F)(F)F)c2)nc1Nc1ccc2oc(=O)[nH]c2c1` [Compound I-353, N2-(3-difluoromethoxy-5-trifluoromethyl)phenyl-5-methyl-N4-(2-oxo-2,3-dihydro-1,3-benzoxazol-5-yl)-2,4-pyrimidinediamine], under 500 nM; in that of `CCN1CCN(c2ccc(Nc3ncc(C)c(Nc4ccc5oc(=O)[nH]c5c4)n3)cc2Cl)CC1` [Compound I-278, N2-[3-chloro-4-(4-ethylpiperazino)]phenyl-5-methyl-N4-(2-oxo-2,3-dihydro-1,3-benzoxazol-5-yl)-2,4-pyrimidinediamine], under 500 nM.
